Results reported in patent publication US20220031709A1, “INHIBITION OF MICROSOMAL PROSTAGLANDIN E2 (PGE2) SYNTHASE-1 (MPGES-1)” (University of Kentucky Research Foundation, priority 2020, published 2022).

How the values were obtained:
JAK = details: in vitro effect of PGE2; cited from earlier work
[1] = single IV dose in clinical trial: ceftriaxone 2 g, aztreonam 500 mg, cefotetan 1 g; read-out: Cmax in human plasma; cited from earlier work
[2] = tested on: CFA-induced knee joint arthritis; test: CFA (adjuvant)-induced knee joint arthritis, arthritis score; type: in vivo, wild-type rats; details: IP daily on Days 3 to 6 after CFA on Day 0
Procedure: FIG. 6 illustrates the anti-inflammatory and analgesic effects (in terms of arthritis score) of ceftriaxone and cefotetan on CFA-induced knee joint arthritis in wild-type rats (n=10 for each group). CFA was injected to the knee joint on Day 0. Drug or vehicle (control) was injected (IP) daily on Days 3 to 6. Arthritis score (mean spontaneous pain rating) measured on Days 0 to 6, 8, 10, and 12.
Ceftriaxone and cefotetan were further tested using an adjuvant-induced knee joint arthritis model described by Hammell et al. 2016. Using this one-week knee joint arthritis model, CFA was injected to the knee joint on Day 0 to induce chronic arthritis and associated pain, followed by daily PWL and arthritis score (mean spontaneous pain rating) assessments from Day 0 to Day 7.
Daily treatment with ceftriaxone and cefotetan or vehicle (control group) started on Day 3 (after the arthritis score assessment on that day) and continued until Day 6. There were a total of four doses of the respective treatment from Day 3 to Day 6. […] On Day 3, the arthritis score reached the peak (reflecting the most severe arthritis), which is consistent with previous observations reported for the control group. (Hammell et al., 2016).

[3] = tested on: carrageenan-induced paw edema; test: carrageenan-induced paw edema, pre-treatment (percent increase in paw volume); type: in vivo, wild-type rats; details: IP 1 h before 1% carrageenan; ceftriaxone 200 mg/kg, cefotetan 100 mg/kg, oxycodone 5 mg/kg
[4] = tested on: carrageenan-induced hyperalgesia; test: carrageenan-induced hyperalgesia, pre-treatment (paw withdrawal latency); type: in vivo, wild-type rats; details: for effect on carrageenan-induced hyperalgesia (PWL): IP 1 h before 1% carrageenan, ceftriaxone 200 mg/kg, cefotetan 100 mg/kg, oxycodone 5 mg/kg
human mPGES-1 = molecular target: T1, human mPGES-1 (Homo sapiens, UniProt O14684); test: in vitro activity assay (ELISA) against human mPGES-1; type: biochemical
T1 sequence (O14684 1-152): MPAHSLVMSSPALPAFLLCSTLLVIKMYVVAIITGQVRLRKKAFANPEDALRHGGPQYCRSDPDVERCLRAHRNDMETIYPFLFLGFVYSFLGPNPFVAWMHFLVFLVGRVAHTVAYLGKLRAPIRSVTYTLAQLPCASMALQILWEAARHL
Procedure: The inhibitory activity of these drugs against human mPGES-1 was determined in vitro using the previously described in vitro activity procedure, an enzyme-linked immunosorbent assay (ELISA). (Ding et al., 2018a; Ding et al., 2018b; Zhou et al., 2017).

[5] = tested on: carrageenan-induced hyperalgesia; test: post-treatment model of carrageenan-induced hyperalgesia; type: in vivo, wild-type rats; details: for pain relief (PWL), post-treatment: treated IP 23 h after carrageenan, ceftriaxone 100 or 200 mg/kg, cefotetan 50 or 100 mg/kg, oxycodone 5 mg/kg
Procedure: To better model the clinical treatment of pain, ceftriaxone (FIG. 4) and cefotetan (FIG. 5) were also tested in a post-treatment model of carrageenan-induced hyperalgesia. Rats were first injected with carrageenan to induce the hyperalgesia/pain.

AngII-induced AAA = test: angiotensin (AngII)-induced abdominal aortic aneurysm model; type: in vivo, ApoE-deficient mice; details: AngII minipump 28 days; ceftriaxone given beginning on Day 5
Procedure: FIG. 7 illustrates the anti-inflammatory effects of ceftriaxone in terms of maximum aortic diameter.
Ceftriaxone was also tested in treatment of angiotensin (AngII)-induced AAA model. This experiment was performed using ApoE-deficient mice. AngII (with a minipump to continuously release the AngII solution within 28 days) was used to induce AAA in this strain of mice beginning Day 0 for all animals in both control and intervention groups.
The AAA was characterized by the maximum aortic diameter […] detected by the ultrasound method. Ceftriaxone was given beginning on Day 5 for intervention.

[6] = tested on: proinflammatory cytokines (including TNF-α), GLT-1; details: animal models of inflammation and pain/hyperalgesia; cited from earlier work
[7] = tested on: chronic inflammatory arthritis; details: placebo-controlled, double-blind study; cited from earlier work
SARS-CoV-2 = type: cell-based; details: cell culture; data not shown
[8] = mouse, in vivo; cited from earlier work

N#C/C(=C/c1ccc(O)c(O)c1)C(=O)NCc1ccccc1 [AG490]
block of PGE2-induced inflammatory hyperalgesia effect (JAK): able to block this in vitro effect of PGE2

C[C@H]1[C@H](NC(=O)/C(=N\OC(C)(C)C(=O)O)c2csc(N)n2)C(=O)N1S(=O)(=O)O [aztreonam]
Cmax [1]: 129 µM

CO[C@@]1(NC(=O)C2SC(=C(C(N)=O)C(=O)O)S2)C(=O)N2C(C(=O)O)=C(CSc3nnnn3C)CS[C@@H]21 (stereo partly shown) [cefotetan]
arthritis score (mean spontaneous pain rating) [2]: mean spontaneous pain rating was reduced
effect on carrageenan-induced paw edema (percent increase in paw volume) [3]: has the desired anti-inflammatory and analgesic effects
Cmax [1]: 440 µM
effect on carrageenan-induced hyperalgesia (PWL) [4]: has the desired anti-inflammatory and analgesic effects
IC50 (human mPGES-1): 13.5 µM
pain relief (PWL), post-treatment [5]: significantly, and dose-dependently, relieved the pain

CO/N=C(\C(=O)N[C@@H]1C(=O)N2C(C(=O)O)=C(CSc3nc(=O)c(=O)[nH]n3C)CS[C@H]12)c1csc(N)n1 [ceftriaxone]
arthritis score (mean spontaneous pain rating) [2]: mean spontaneous pain rating was reduced
effect on carrageenan-induced paw edema (percent increase in paw volume) [3]: significantly decreased the percent increase in the paw volume
Cmax [1]: 463 µM
effect on carrageenan-induced hyperalgesia (PWL) [4]: completely suppressed carrageenan-induced hyperalgesia
progression of AAA (maximum aortic diameter, ultrasound) (AngII-induced AAA): significantly stopped the progression of AAA, and it even reversed the AAA
effect on proinflammatory cytokines and GLT-1 [6]: effectively attenuated the proinflammatory cytokines (including TNF-α) and reversed the downregulation of GLT-1
clinical efficacy in chronic inflammatory arthritis [7]: efficacious in treatment of chronic inflammatory arthritis
cytoprotective activity against SARS-CoV-2 infection (SARS-CoV-2): cytoprotective against SARS-CoV-2 infection
pain relief (PWL), post-treatment [5]: significantly, and dose-dependently, relieved the pain

Cc1ccc(-c2cc(C(F)(F)F)nn2-c2ccc(S(N)(=O)=O)cc2)cc1 [celecoxib]
toxicity in mice [8]: very toxic for stomach and other issues of mice, and bleeding ulcer was observed at gastric mucosa

COc1ccc2c3c1O[C@H]1C(=O)CC[C@@]4(O)[C@@H](C2)N(C)CC[C@]314 [oxycodone]
effect on carrageenan-induced hyperalgesia (PWL) [4]: effectively relieved the pain within six hours after oxycodone injection
pain (PWL) at 23 h ([4]; oxycodone 5 mg/kg IP pre-treatment, 23 h (next day)): still significant pain at 23 h
PWL peak time ([5]; oxycodone 5 mg/kg IP, post-treatment): 1 h
pain relief (PWL), post-treatment [5]: significantly relieved the pain
